In US20230277524A1, “COMBINATION THERAPY FOR TREATMENT OF VIRAL INFECTIONS” (priority 2020, published 2023):
“Also recorded” adds a separate entry of the source. Where two headings read alike, the source gives them in different places.

Assays:
SARS-CoV-2 virus [1] = assay type: cell-based
SARS-CoV-2 virus [2] = assay: microbe, parasite or virus in culture; assay type: cell-based; conditions: Severe acute respiratory syndrome coronavirus 2, 72 h; Vero E6-WT cells, three days post-infection; read-out: EC50 for % inhibition of virus-induced CPE
SARS-CoV-2 virus [3] = assay: microbe, parasite or virus in culture; assay type: cell-based
SARS-CoV-2 = assay: Cell-based antiviral assay (CPE, MTS) in Huh7 cells; conditions: Huh7, 0.0062 μM concentration level, 4 days post-infection
ABCB1 = conditions: low-nM dual-specificity ABCB1/ABCG2 inhibitor; cited from earlier work
[4] = plate 3, 12 drugs, 250 nM, day 4, MLR model (FIG. 2)
[5] = 250 nM, day 4 (FIG. 3, P3 TOX 250 nM)

C[C@H]1CCC/C=C/[C@@H]2C[C@H](O)C[C@H]2[C@H](O)/C=C/C(=O)O1 [BrefA, Brefeldin A]
toxicity (loss of fluorescence intensity, cell loss) (VERO-EGFP cells; twelve-drug plate, scanned 4 days later (FIG. 10)): cytotoxic and the cause of the observed cell loss

Cc1c(O)c(=O)ccn1C [Deferiprone]
complementing the REC combination or substituting for curcumin (SARS-CoV-2 virus [1]): failed to complement the REC combination or substitute for curcumin

O=c1nc(NO)ccn1[C@@H]1O[C@H](CO)[C@@H](O)[C@H]1O [EIDD-1931]
enhancement of / effect on the REC combination (SARS-CoV-2 virus [1]): had no effect on the REC combination | substitution for remdesivir in the REC combination (SARS-CoV-2 virus [1]; focus testing (FIGS. 13-18)): failed to substitute for remdesivir | substitution for remdesivir in the REC combination (SARS-CoV-2 virus [1]; focus testing (FIGS. 13-18), listed as EIDD1931): none were able to substitute for remdesivir | individual antiviral efficacy against SARS-CoV2 (SARS-CoV-2 virus [1]; listed as EIDD1): does not exert an antiviral effect | individual antiviral efficacy against SARS-CoV2 (SARS-CoV-2 virus [1]; listed as EIDD1931): did not provide evidence for efficacy

CC(C)C(=O)OC[C@H]1O[C@@H](n2cc/c(=N\O)[nH]c2=O)[C@H](O)[C@@H]1O [EIDD-2801]
substitution for remdesivir in the REC combination (SARS-CoV-2 virus [1]): failed as a substitute for remdesivir; also recorded: none were able to substitute for remdesivir

N#C[C@@]1(c2ccc3c(N)ncnn23)O[C@H](CO)[C@@H](O)[C@H]1O [GS441524]
individual antiviral efficacy against SARS-CoV2 (SARS-CoV-2 virus [1]): smaller, yet significant, antiviral effect | substitution for remdesivir in the REC combination (SARS-CoV-2 virus [1]): did not replace remdesivir in the REC combination; also recorded: failed to substitute for remdesivir | criticality when optimized for maximal cytopathic effect (SARS-CoV-2 virus [1]; system optimization): failed to demonstrate criticality

Cc1sc2c(c1C)C(c1ccc(Cl)cc1)=N[C@@H](CC(=O)OC(C)(C)C)c1nnc(C)n1-2 [JQ-1]
enhancement of / effect on the REC combination (SARS-CoV-2 virus [1]): none of the compounds synergized with the REC combination

COc1ccc2c3c([nH]c2c1)[C@H](CC(C)C)N1C(=O)[C@H](CCC(=O)OC(C)(C)C)NC(=O)[C@@H]1C3 [Ko143]
substitution / complementation for elacridar in the REC combination (SARS-CoV-2 virus [1]; focus testing, REC combination at 250 nM (FIGS. 11, 12, 17)): failed to complement for elacridar | substitution / complementation for elacridar in the REC combination (SARS-CoV-2 virus [1]; focus testing, REC combination at 250 nM (FIGS. 11, 12, 17), listed as K0143): cannot substitute for elacridar

CC(=O)N[C@@H](CS)C(=O)O [N-acetyl cysteine]
complementing the REC combination or substituting for curcumin (SARS-CoV-2 virus [1]): failed to complement the REC combination, or substitute for curcumin

CCOC/C=C/c1ccc(-c2nc(-c3ccc(NC(C)C)cc3)c(-c3ccc(NC(C)C)cc3)[nH]2)cc1 [ONT-093]
substitution / complementation for elacridar in the REC combination (SARS-CoV-2 virus [1]): failed to complement

CC(C)[C@H](NC(=O)c1ccc2ccccc2n1)C(=O)N[C@@H](CC(=O)O)C(=O)COc1c(F)cccc1F [Q-VD-Oph]
enhancement of / effect on the REC combination (SARS-CoV-2 virus [1]): none of the compounds synergized with the REC combination

O=c1c(O)c(-c2ccc(O)c(O)c2)oc2cc(O)cc(O)c12 [Quercetin]
substitution / complementation for elacridar in the REC combination (SARS-CoV-2 virus [1]): failed to complement for elacridar

Nc1nc(Nc2ccc3c(c2)CCC(N2CCCC2)CC3)nn1-c1cc2c(nn1)-c1ccccc1CCC2 (centres unmarked) [R428]
enhancement of / effect on the REC combination (SARS-CoV-2 virus [1]): all failed to enhance the REC combination

CN(C)C(=O)COC(=O)Cc1ccc(OC(=O)c2ccc(NC(=N)N)cc2)cc1 [camostat]
individual antiviral efficacy against SARS-CoV2 (SARS-CoV-2 virus [1]): did not provide evidence for efficacy | antiviral response (survival of the cells in response to the SARS-CoV-2 virus) (SARS-CoV-2 virus [1]; [4]): negatively impacted the survival of the cells

Cc1cc(C)c(Nc2ccnc(Nc3ccc(C#N)cc3)n2)c(C)c1 [dapivirine]
enhancement of / effect on the REC combination (SARS-CoV-2 virus [1]): all failed to enhance the REC combination

COc1cc2c(cc1OC)CN(CCc1ccc(NC(=O)c3cccc4c(=O)c5cccc(OC)c5[nH]c34)cc1)CC2 [elacridar]
antiviral response (survival of the cells in response to the SARS-CoV-2 virus) (SARS-CoV-2 virus [1]; [4]): antiviral response was demonstrated | EC50 (SARS-CoV-2 virus [2]): 1070 ± 500 nM | EC50 (SARS-CoV-2 virus [3]; Severe acute respiratory syndrome coronavirus 2, 72 h, Vero E6-GFP cells, three days post-infection, read-out: EC50 for % inhibition of virus-induced CPE): 2160 ± 500 nM | toxicology (cell viability without virus) (VERO-EGFP cells; [5]): none of the three drugs in the triad of remdesivir, elacridar, and curcumin negatively impacted cell viability

NC(=O)c1nc(F)c[nH]c1=O [favipiravir]
enhancement of / effect on the REC combination (SARS-CoV-2 virus [1]): had no effect on the efficacy of the remdesivir, elacridar, and curcumin combination | individual antiviral efficacy against SARS-CoV2 (SARS-CoV-2 virus [1]): failed to emerge as efficacious | substitution for remdesivir in the REC combination (SARS-CoV-2 virus [1]): none were able to substitute for remdesivir

Cc1nc(-c2ccc(OCC(C)C)c(C#N)c2)sc1C(=O)O [febuxostat]
substitution / complementation for elacridar in the REC combination (SARS-CoV-2 virus [1]): cannot substitute for elacridar; also recorded: failed to complement

CN1CC[C@H](c2c(O)cc(O)c3c(=O)cc(-c4ccccc4Cl)oc23)[C@H](O)C1 [flavopiridol]
interaction terms / synergism in antiviral response (SARS-CoV-2 virus [1]): did not interact significantly with the other three compounds | antiviral response (survival of the cells in response to the SARS-CoV-2 virus) (SARS-CoV-2 virus [1]; [4]): antiviral response was demonstrated | toxicology (cytotoxicity without virus) (VERO-EGFP cells): cytotoxic | toxicology (cell viability without virus) (VERO-EGFP cells; [5]): highly toxic to the Vero-EGFP cells | toxicology (cell viability without virus) (VERO-EGFP cells; 250 nM, day 4 (FIG. 3, P3 TOX 250 nM), listed as Flavopiridol): individually caused cell death

Nc1ncnc2c([C@@H]3N[C@H](CO)[C@@H](O)[C@H]3O)c[nH]c12 [galidesivir]
contribution factor to the effect of the REC combination (SARS-CoV-2 virus [1]): 9.6

CCN(CCO)CCCC(C)Nc1ccnc2cc(Cl)ccc12 (centres unmarked) [hydroxychloroquine]
enhancement of / effect on the REC combination (SARS-CoV-2 virus [1]): all failed to enhance the REC combination | individual antiviral efficacy against SARS-CoV2 (SARS-CoV-2 virus [1]): failed to emerge as efficacious

CCCCC1=NC2(CCCC2)C(=O)N1Cc1ccc(-c2ccccc2-c2nnn[nH]2)cc1 [irbesartan]
individual antiviral efficacy against SARS-CoV2 (SARS-CoV-2 virus [1]): did not provide evidence for efficacy | antiviral response (survival of the cells in response to the SARS-CoV-2 virus) (SARS-CoV-2 virus [1]; [4]): negatively impacted the survival of the cells

Cc1cccc(C)c1OCC(=O)N[C@@H](Cc1ccccc1)[C@@H](O)C[C@H](Cc1ccccc1)NC(=O)[C@H](C(C)C)N1CCCNC1=O [lopinavir]
individual antiviral efficacy against SARS-CoV2 (SARS-CoV-2 virus [1]): did not provide evidence for efficacy

OC(c1cc(C(F)(F)F)nc2c(C(F)(F)F)cccc12)C1CCCCN1 (centres unmarked) [mefloquine]
enhancement of / effect on the REC combination (SARS-CoV-2 virus [1]): all failed to enhance the REC combination | individual antiviral efficacy against SARS-CoV2 (SARS-CoV-2 virus [1]): did not provide evidence for efficacy

Cc1c(O)cccc1C(=O)N[C@@H](CSc1ccccc1)[C@H](O)CN1C[C@H]2CCCC[C@H]2C[C@H]1C(=O)NC(C)(C)C [nelfinavir]
enhancement of / effect on the REC combination (SARS-CoV-2 virus [1]): all failed to enhance the REC combination

CCC(CC)COC(=O)[C@H](C)N[P@](=O)(OC[C@H]1O[C@@](C#N)(c2ccc3c(N)ncnn23)[C@H](O)[C@@H]1O)Oc1ccccc1 [remdesivir]
antiviral response (survival of the cells in response to the SARS-CoV-2 virus) (SARS-CoV-2 virus [1]): antiviral response was demonstrated | cytopathic effect of the virus at one concentration (SARS-CoV-2): minimally protected | inhibition of virus-induced cytopathic effect (SARS-CoV-2 virus [3]; Vero E6-GFP, 1.11 μM): 50-60% | toxicology (cell viability without virus) (VERO-EGFP cells): none of the three drugs in the triad of remdesivir, elacridar, and curcumin negatively impacted cell viability | toxicology (cytotoxicity without virus) (VERO-EGFP cells): no cytotoxicity

CC(N)C12CC3CC(CC(C3)C1)C2 (centres unmarked) [rimantadine]
individual antiviral efficacy against SARS-CoV2 (SARS-CoV-2 virus [1]): did not provide evidence for efficacy

CC(C)c1nc(CN(C)C(=O)N[C@H](C(=O)N[C@@H](Cc2ccccc2)C[C@H](O)[C@H](Cc2ccccc2)NC(=O)OCc2cncs2)C(C)C)cs1 [ritonavir]
individual antiviral efficacy against SARS-CoV2 (SARS-CoV-2 virus [1]): did not provide evidence for efficacy

COc1cc2c(cc1OC)CN(CCc1ccc(NC(=O)c3cc(OC)c(OC)cc3NC(=O)c3cnc4ccccc4c3)cc1)CC2 [tariquidar]
antiviral potency in synergizing with remdesivir (interaction terms) (SARS-CoV-2 virus [1]): equally potent in synergizing with remdesivir | substitution / complementation for elacridar in the REC combination (SARS-CoV-2 virus [1]): can be substituted for elacridar | ABCB1 inhibitory potency (ABCB1): 5.1 nM

C=C1CC[C@H](O)C/C1=C/C=C1\CCC[C@]2(C)[C@@H]([C@H](C)CCCC(C)C)CC[C@@H]12 [vit-D3]
enhancement of / effect on the REC combination (SARS-CoV-2 virus [1]): failed to enhance the REC combination

[Zn] [zinc]
enhancement of / effect on the REC combination (SARS-CoV-2 virus [1]): failed to enhance the REC combination

Z-VAD
enhancement of / effect on the REC combination (SARS-CoV-2 virus [1]): none of the compounds synergized with the REC combination

ivermectin
enhancement of / effect on the REC combination (SARS-CoV-2 virus [1]): unable to enhance the REC combination | individual antiviral efficacy against SARS-CoV2 (SARS-CoV-2 virus [1]): individual, but limited potency
